Source: ChEMBL document CHEMBL1629456, “ApoA-I mimetic peptides promote pre-β HDL formation in vivo causing remodeling of HDL and triglyceride accumulation at higher dose” (Bioorg Med Chem, 2010)

target: Phospholipid-transporting ATPase ABCA1 (Mus musculus, UniProt P41233); assay: Induction of ABCA1-mediated [3H]cholesterol efflux in mouse RAW 264.7 macrophages after 24 hrs
Sequence (P41233 whole entry): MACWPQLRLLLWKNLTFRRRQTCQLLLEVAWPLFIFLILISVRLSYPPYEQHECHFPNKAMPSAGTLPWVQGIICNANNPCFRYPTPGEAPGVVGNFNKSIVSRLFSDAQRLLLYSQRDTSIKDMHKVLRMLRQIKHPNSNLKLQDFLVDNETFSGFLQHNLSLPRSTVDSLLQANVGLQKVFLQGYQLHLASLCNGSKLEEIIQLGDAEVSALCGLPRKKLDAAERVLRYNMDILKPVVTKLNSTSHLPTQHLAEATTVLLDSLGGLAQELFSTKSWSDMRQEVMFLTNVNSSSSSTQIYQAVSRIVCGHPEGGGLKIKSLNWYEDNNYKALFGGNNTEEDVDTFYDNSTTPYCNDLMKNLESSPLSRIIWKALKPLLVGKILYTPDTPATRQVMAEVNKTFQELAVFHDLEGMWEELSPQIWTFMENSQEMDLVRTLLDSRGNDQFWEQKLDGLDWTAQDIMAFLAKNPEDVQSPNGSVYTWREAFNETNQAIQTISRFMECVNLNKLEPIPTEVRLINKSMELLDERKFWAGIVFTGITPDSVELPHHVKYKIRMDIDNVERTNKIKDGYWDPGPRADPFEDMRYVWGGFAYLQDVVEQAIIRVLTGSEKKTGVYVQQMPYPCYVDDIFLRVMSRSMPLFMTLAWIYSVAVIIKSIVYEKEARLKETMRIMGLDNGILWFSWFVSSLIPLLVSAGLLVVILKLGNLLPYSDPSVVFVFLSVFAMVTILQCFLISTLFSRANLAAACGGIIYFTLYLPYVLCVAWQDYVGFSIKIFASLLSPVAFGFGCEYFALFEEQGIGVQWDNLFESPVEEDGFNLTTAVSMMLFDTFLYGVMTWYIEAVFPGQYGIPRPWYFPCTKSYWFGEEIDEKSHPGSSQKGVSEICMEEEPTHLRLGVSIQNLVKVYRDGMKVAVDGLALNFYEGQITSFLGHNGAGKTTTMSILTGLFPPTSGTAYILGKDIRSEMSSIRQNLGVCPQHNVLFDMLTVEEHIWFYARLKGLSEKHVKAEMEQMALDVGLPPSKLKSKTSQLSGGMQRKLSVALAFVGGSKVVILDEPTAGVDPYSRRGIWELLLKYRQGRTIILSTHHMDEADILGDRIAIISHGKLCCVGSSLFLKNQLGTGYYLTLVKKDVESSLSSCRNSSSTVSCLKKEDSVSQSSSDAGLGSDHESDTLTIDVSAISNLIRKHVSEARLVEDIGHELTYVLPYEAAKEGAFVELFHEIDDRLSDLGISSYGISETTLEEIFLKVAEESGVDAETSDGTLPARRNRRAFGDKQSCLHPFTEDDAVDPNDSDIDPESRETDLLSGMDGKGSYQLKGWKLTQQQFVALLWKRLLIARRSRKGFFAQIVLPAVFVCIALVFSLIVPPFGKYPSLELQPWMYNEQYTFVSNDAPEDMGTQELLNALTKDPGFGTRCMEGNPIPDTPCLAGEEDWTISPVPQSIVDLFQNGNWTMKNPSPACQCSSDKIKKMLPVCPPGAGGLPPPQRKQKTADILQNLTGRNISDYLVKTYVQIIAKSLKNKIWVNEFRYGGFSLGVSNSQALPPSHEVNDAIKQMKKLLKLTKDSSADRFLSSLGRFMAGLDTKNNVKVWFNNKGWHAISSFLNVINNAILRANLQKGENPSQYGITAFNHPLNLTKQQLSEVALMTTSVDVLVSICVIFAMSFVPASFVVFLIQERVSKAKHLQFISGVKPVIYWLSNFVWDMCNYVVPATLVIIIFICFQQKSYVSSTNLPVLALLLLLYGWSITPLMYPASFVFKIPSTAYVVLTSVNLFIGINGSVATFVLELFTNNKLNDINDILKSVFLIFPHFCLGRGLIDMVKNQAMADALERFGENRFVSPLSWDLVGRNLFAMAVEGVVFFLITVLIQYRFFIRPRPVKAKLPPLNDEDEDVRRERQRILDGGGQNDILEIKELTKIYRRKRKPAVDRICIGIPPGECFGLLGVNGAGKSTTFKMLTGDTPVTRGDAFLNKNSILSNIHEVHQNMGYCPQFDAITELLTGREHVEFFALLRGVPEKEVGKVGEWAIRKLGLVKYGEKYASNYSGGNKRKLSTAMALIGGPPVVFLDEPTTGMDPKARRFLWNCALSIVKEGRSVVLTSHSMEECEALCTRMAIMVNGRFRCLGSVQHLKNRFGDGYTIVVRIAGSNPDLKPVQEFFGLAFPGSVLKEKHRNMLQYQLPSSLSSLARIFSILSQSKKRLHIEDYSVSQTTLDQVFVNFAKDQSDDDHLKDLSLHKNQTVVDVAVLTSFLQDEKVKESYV

`C=CCCCC[C@H](NC(=O)[C@@H]1CCCN1C(C)=O)C(=O)N[C@@H](CC(C)C)C(=O)N[C@@H](CC(=O)O)C(=O)N[C@@H](CCC(=O)O)C(=O)N[C@@H](Cc1ccccc1)C(=O)N[C@@H](CCCN=C(N)N)C(=O)N[C@@H](CCC(=O)O)C(=O)N[C@@H](CCCCN)C(=O)N[C@@H](CC(C)C)C(=O)N[C@@H](CC(N)=O)C(=O)N[C@@H](CCC(=O)O)C(=O)N[C@@H](CCC(=O)O)C(=O)N[C@@H](CC(C)C)C(=O)N[C@@H](CCC(=O)O)C(=O)N[C@@H](C)C(=O)N[C@@H](CC(C)C)C(=O)N[C@@H](CCCCN)C(=O)N[C@@H](CCC(N)=O)C(=O)N[C@@H](CCCCN)C(=O)N[C@@H](CC(C)C)C(=O)N[C@@H](CCCCN)C(N)=O` and `C=CCCCC[C@@H](NC(=O)[C@@H]1CCCN1C(C)=O)C(=O)N[C@@H](CC(C)C)C(=O)N[C@@H](CC(=O)O)C(=O)N[C@@H](CCC(=O)O)C(=O)N[C@@H](Cc1ccccc1)C(=O)N[C@@H](CCCN=C(N)N)C(=O)N[C@@H](CCC(=O)O)C(=O)N[C@@H](CCCCN)C(=O)N[C@@H](CC(C)C)C(=O)N[C@@H](CC(N)=O)C(=O)N[C@@H](CCC(=O)O)C(=O)N[C@@H](CCC(=O)O)C(=O)N[C@@H](CC(C)C)C(=O)N[C@@H](CCC(=O)O)C(=O)N[C@@H](C)C(=O)N[C@@H](CC(C)C)C(=O)N[C@@H](CCCCN)C(=O)N[C@@H](CCC(N)=O)C(=O)N[C@@H](CCCCN)C(=O)N[C@@H](CC(C)C)C(=O)N[C@@H](CCCCN)C(N)=O` cannot be ordered by EC50: > 100 µM for the first, > 100 µM for the second.

`C=CCCCC[C@H](NC(=O)[C@@H](NC(=O)[C@@H]1CCCN1C(C)=O)C(C)C)C(=O)N[C@@H](CC(=O)O)C(=O)N[C@@H](CCC(=O)O)C(=O)N[C@@H](Cc1ccccc1)C(=O)N[C@@H](CCCNC(=N)N)C(=O)N[C@@H](CCC(=O)O)C(=O)N[C@@H](CCCCN)C(=O)N[C@@H](CC(C)C)C(=O)N[C@@H](CC(N)=O)C(=O)N[C@@H](CCC(=O)O)C(=O)N[C@@H](CCC(=O)O)C(=O)N[C@@H](CC(C)C)C(=O)N[C@@H](CCC(=O)O)C(=O)N[C@@H](C)C(=O)N[C@@H](CC(C)C)C(=O)N[C@@H](CCCCN)C(=O)N[C@@H](CCC(N)=O)C(=O)N[C@@H](CCCCN)C(=O)N[C@@H](CC(C)C)C(=O)N[C@@H](CCCCN)C(N)=O` and `C=CCCCC[C@H](NC(=O)[C@H](CCC(=O)O)NC(=O)[C@H](CCC(=O)O)NC(=O)[C@H](CC(N)=O)NC(=O)[C@H](CC(C)C)NC(=O)[C@H](CCCCN)NC(=O)[C@H](CCC(=O)O)NC(=O)[C@H](CCCNC(=N)N)NC(=O)[C@H](Cc1ccccc1)NC(=O)[C@H](CCC(=O)O)NC(=O)[C@H](CC(=O)O)NC(=O)[C@H](CC(C)C)NC(=O)[C@@H](NC(=O)[C@@H]1CCCN1C(C)=O)C(C)C)C(=O)N[C@@H](CCC(=O)O)C(=O)N[C@@H](C)C(=O)N[C@@H](CC(C)C)C(=O)N[C@@H](CCCCN)C(=O)N[C@@H](CCC(N)=O)C(=O)N[C@@H](CCCCN)C(=O)N[C@@H](CC(C)C)C(=O)N[C@@H](CCCCN)C(N)=O` cannot be ordered by EC50: > 100 µM for the first, > 100 µM for the second.

`C=CCCCC[C@H](NC(=O)[C@H](CCC(=O)O)NC(=O)[C@H](CC(=O)O)NC(=O)[C@H](CC(C)C)NC(=O)[C@@H](NC(=O)[C@@H]1CCCN1C(C)=O)C(C)C)C(=O)N[C@@H](CCCNC(=N)N)C(=O)N[C@@H](CCC(=O)O)C(=O)N[C@@H](CCCCN)C(=O)N[C@@H](CC(C)C)C(=O)N[C@@H](CC(N)=O)C(=O)N[C@@H](CCC(=O)O)C(=O)N[C@@H](CCC(=O)O)C(=O)N[C@@H](CC(C)C)C(=O)N[C@@H](CCC(=O)O)C(=O)N[C@@H](C)C(=O)N[C@@H](CC(C)C)C(=O)N[C@@H](CCCCN)C(=O)N[C@@H](CCC(N)=O)C(=O)N[C@@H](CCCCN)C(=O)N[C@@H](CC(C)C)C(=O)N[C@@H](CCCCN)C(N)=O` and `C=CCCCC[C@@H](NC(=O)[C@H](CCC(=O)O)NC(=O)[C@H](CC(=O)O)NC(=O)[C@H](CC(C)C)NC(=O)[C@@H](NC(=O)[C@@H]1CCCN1C(C)=O)C(C)C)C(=O)N[C@@H](CCCN=C(N)N)C(=O)N[C@@H](CCC(=O)O)C(=O)N[C@@H](CCCCN)C(=O)N[C@@H](CC(C)C)C(=O)N[C@@H](CC(N)=O)C(=O)N[C@@H](CCC(=O)O)C(=O)N[C@@H](CCC(=O)O)C(=O)N[C@@H](CC(C)C)C(=O)N[C@@H](CCC(=O)O)C(=O)N[C@@H](C)C(=O)N[C@@H](CC(C)C)C(=O)N[C@@H](CCCCN)C(=O)N[C@@H](CCC(N)=O)C(=O)N[C@@H](CCCCN)C(=O)N[C@@H](CC(C)C)C(=O)N[C@@H](CCCCN)C(N)=O` cannot be ordered by EC50: > 100 µM for the first, > 100 µM for the second.

`C=CCCCC[C@H](NC(=O)[C@H](CCC(=O)O)NC(=O)[C@H](CCCN=C(N)N)NC(=O)[C@H](Cc1ccccc1)NC(=O)[C@H](CCC(=O)O)NC(=O)[C@H](CC(=O)O)NC(=O)[C@H](CC(C)C)NC(=O)[C@@H](NC(=O)[C@@H]1CCCN1C(C)=O)C(C)C)C(=O)N[C@@H](CC(C)C)C(=O)N[C@@H](CC(N)=O)C(=O)N[C@@H](CCC(=O)O)C(=O)N[C@@H](CCC(=O)O)C(=O)N[C@@H](CC(C)C)C(=O)N[C@@H](CCC(=O)O)C(=O)N[C@@H](C)C(=O)N[C@@H](CC(C)C)C(=O)N[C@@H](CCCCN)C(=O)N[C@@H](CCC(N)=O)C(=O)N[C@@H](CCCCN)C(=O)N[C@@H](CC(C)C)C(=O)N[C@@H](CCCCN)C(N)=O` and `C=CCCCC[C@H](NC(=O)[C@H](CCC(N)=O)NC(=O)[C@H](CCCCN)NC(=O)[C@H](CC(C)C)NC(=O)[C@H](C)NC(=O)[C@H](CCC(=O)O)NC(=O)[C@H](CC(C)C)NC(=O)[C@H](CCC(=O)O)NC(=O)[C@H](CCC(=O)O)NC(=O)[C@H](CC(N)=O)NC(=O)[C@H](CC(C)C)NC(=O)[C@H](CCCCN)NC(=O)[C@H](CCC(=O)O)NC(=O)[C@H](CCCNC(=N)N)NC(=O)[C@H](Cc1ccccc1)NC(=O)[C@H](CCC(=O)O)NC(=O)[C@H](CC(=O)O)NC(=O)[C@H](CC(C)C)NC(=O)[C@@H](NC(=O)[C@@H]1CCCN1C(C)=O)C(C)C)C(=O)N[C@@H](CC(C)C)C(=O)N[C@@H](CCCCN)C(N)=O` cannot be ordered by EC50: > 100 µM for the first, 213 µM for the second.

`C=CCCCC[C@H](NC(=O)[C@H](C)NC(=O)[C@H](CCC(=O)O)NC(=O)[C@H](CC(C)C)NC(=O)[C@H](CCC(=O)O)NC(=O)[C@H](CCC(=O)O)NC(=O)[C@H](CC(N)=O)NC(=O)[C@H](CC(C)C)NC(=O)[C@H](CCCCN)NC(=O)[C@H](CCC(=O)O)NC(=O)[C@H](CCCNC(=N)N)NC(=O)[C@H](Cc1ccccc1)NC(=O)[C@H](CCC(=O)O)NC(=O)[C@H](CC(=O)O)NC(=O)[C@H](CC(C)C)NC(=O)[C@@H](NC(=O)[C@@H]1CCCN1C(C)=O)C(C)C)C(=O)N[C@@H](CCCCN)C(=O)N[C@@H](CCC(N)=O)C(=O)N[C@@H](CCCCN)C(=O)N[C@@H](CC(C)C)C(=O)N[C@@H](CCCCN)C(N)=O` and `C=CCCCC[C@H](NC(=O)[C@H](CCCCN)NC(=O)[C@H](CCC(N)=O)NC(=O)[C@H](CCCCN)NC(=O)[C@H](CC(C)C)NC(=O)[C@H](C)NC(=O)[C@H](CCC(=O)O)NC(=O)[C@H](CC(C)C)NC(=O)[C@H](CCC(=O)O)NC(=O)[C@H](CCC(=O)O)NC(=O)[C@H](CC(N)=O)NC(=O)[C@H](CC(C)C)NC(=O)[C@H](CCCCN)NC(=O)[C@H](CCC(=O)O)NC(=O)[C@H](CCCNC(=N)N)NC(=O)[C@H](Cc1ccccc1)NC(=O)[C@H](CCC(=O)O)NC(=O)[C@H](CC(=O)O)NC(=O)[C@H](CC(C)C)NC(=O)[C@@H](NC(=O)[C@@H]1CCCN1C(C)=O)C(C)C)C(=O)N[C@@H](CCCCN)C(N)=O` cannot be ordered by EC50: > 100 µM for the first, > 100 µM for the second.

`C=CCCCC[C@H](NC(=O)[C@H](CCCCN)NC(=O)[C@H](CCC(=O)O)NC(=O)[C@H](CCCN=C(N)N)NC(=O)[C@H](Cc1ccccc1)NC(=O)[C@H](CCC(=O)O)NC(=O)[C@H](CC(=O)O)NC(=O)[C@H](CC(C)C)NC(=O)[C@@H](NC(=O)[C@@H]1CCCN1C(C)=O)C(C)C)C(=O)N[C@@H](CC(N)=O)C(=O)N[C@@H](CCC(=O)O)C(=O)N[C@@H](CCC(=O)O)C(=O)N[C@@H](CC(C)C)C(=O)N[C@@H](CCC(=O)O)C(=O)N[C@@H](C)C(=O)N[C@@H](CC(C)C)C(=O)N[C@@H](CCCCN)C(=O)N[C@@H](CCC(N)=O)C(=O)N[C@@H](CCCCN)C(=O)N[C@@H](CC(C)C)C(=O)N[C@@H](CCCCN)C(N)=O` and `C=CCCCC[C@@H](NC(=O)[C@@H](NC(=O)[C@@H]1CCCN1C(C)=O)C(C)C)C(=O)N[C@@H](CC(=O)O)C(=O)N[C@@H](CCC(=O)O)C(=O)N[C@@H](Cc1ccccc1)C(=O)N[C@@H](CCCNC(=N)N)C(=O)N[C@@H](CCC(=O)O)C(=O)N[C@@H](CCCCN)C(=O)N[C@@H](CC(C)C)C(=O)N[C@@H](CC(N)=O)C(=O)N[C@@H](CCC(=O)O)C(=O)N[C@@H](CCC(=O)O)C(=O)N[C@@H](CC(C)C)C(=O)N[C@@H](CCC(=O)O)C(=O)N[C@@H](C)C(=O)N[C@@H](CC(C)C)C(=O)N[C@@H](CCCCN)C(=O)N[C@@H](CCC(N)=O)C(=O)N[C@@H](CCCCN)C(=O)N[C@@H](CC(C)C)C(=O)N[C@@H](CCCCN)C(N)=O` cannot be ordered by EC50: > 100 µM for the first, > 100 µM for the second.

`C=CCCCC[C@@H](NC(=O)[C@H](CCC(=O)O)NC(=O)[C@H](CCCNC(=N)N)NC(=O)[C@H](Cc1ccccc1)NC(=O)[C@H](CCC(=O)O)NC(=O)[C@H](CC(=O)O)NC(=O)[C@H](CC(C)C)NC(=O)[C@@H](NC(=O)[C@@H]1CCCN1C(C)=O)C(C)C)C(=O)N[C@@H](CC(C)C)C(=O)N[C@@H](CC(N)=O)C(=O)N[C@@H](CCC(=O)O)C(=O)N[C@@H](CCC(=O)O)C(=O)N[C@@H](CC(C)C)C(=O)N[C@@H](CCC(=O)O)C(=O)N[C@@H](C)C(=O)N[C@@H](CC(C)C)C(=O)N[C@@H](CCCCN)C(=O)N[C@@H](CCC(N)=O)C(=O)N[C@@H](CCCCN)C(=O)N[C@@H](CC(C)C)C(=O)N[C@@H](CCCCN)C(N)=O` and `C=CCCCC[C@@H](NC(=O)[C@H](CCCCN)NC(=O)[C@H](CCC(=O)O)NC(=O)[C@H](CCCNC(=N)N)NC(=O)[C@H](Cc1ccccc1)NC(=O)[C@H](CCC(=O)O)NC(=O)[C@H](CC(=O)O)NC(=O)[C@H](CC(C)C)NC(=O)[C@@H](NC(=O)[C@@H]1CCCN1C(C)=O)C(C)C)C(=O)N[C@@H](CC(N)=O)C(=O)N[C@@H](CCC(=O)O)C(=O)N[C@@H](CCC(=O)O)C(=O)N[C@@H](CC(C)C)C(=O)N[C@@H](CCC(=O)O)C(=O)N[C@@H](C)C(=O)N[C@@H](CC(C)C)C(=O)N[C@@H](CCCCN)C(=O)N[C@@H](CCC(N)=O)C(=O)N[C@@H](CCCCN)C(=O)N[C@@H](CC(C)C)C(=O)N[C@@H](CCCCN)C(N)=O` cannot be ordered by EC50: > 100 µM for the first, > 100 µM for the second.
